Values after ≈ are worked out from the molar mass of the structure shown. Square brackets hold non-standard residues; d marks the D form. Peptide text beside a SMILES is read from it. Ac6c = NC1(C(=O)O)CCCCC1
Key:
[1] = system: A. baumannii ATCC BBA-1605
Source text: (§1) To investigate the activity of the A3-APO metabolites, Chex1-Arg20 single chain unit and an Arg7-Arg20 common cleavage fragment were synthesized and studied for their ability to kill Enterobacteriaceae strains in undiluted Muller-Hinton broth, a true measure of potential clinical viability (Otvos et al., 2005. J. Med. Chem. 48: 5349-5359). The peptides of the invention were made on a CEM Liberty automated synthesizer with standard Fmoc-chemistry. The peptides were detached from the resin with the carboxyl terminus of the C-terminal Arg residue being in the form of an amino amide, —C(O)—NH2 (“Chex1-Arg20-NH2” and “Arg7-Arg20-NH2”), while still in the microwave chamber, and were purified by RP-HPLC. […] The biological studies carried out on chemically synthesized peptides in this example and succeeding examples were carried out on the C-terminal modified versions of the peptides wherein the C-terminal carboxylic acid function was in the form of an amide, —C(O)—NH2. Antibacterial growth inhibition assays were performed using sterile 96-well polypropylene plates (Nunc F96 microtiter plates) in a final volume of 100 μL as described previously (Cudic et al., 2002. Peptides 23: 271-283). The cell concentrations were estimated by measuring the ultraviolet absorbance at 600 nm and applying the formula cfu/mL=A600(3.8×10^8), where cfu is the number of colony-forming units. Briefly, 50 μL of a suspension of midlogarithmic phase bacterial cultures diluted to 5×10^5 cfu/mL in Muller-Hinton broth (MHB) was added to 50 μL of serially diluted peptides also dissolved in MHB. The final peptide concentration was 128 μg/mL. Cultures were then incubated at 37° C., 5% CO2 for 16-20 h without shaking, and growth inhibition was measured by recording the absorbance at 600 nm using a microplate reader. […] The minimal inhibitory concentration indicates the lowest peptide dose where no visible bacterial growth is detected after 16 hours incubation in full strength Muller-Hinton broth at 37° C. The peptide Chex-pyrr-Dap dimer was also included in the study. […] (Cudic et al., 2002. Peptides 23: 271-283).
(§2) Following the protocol of Example 2, minimal inhibitory concentrations of the Chex1-Arg20 peptide against selected bacteria was determined. […] A3-APO was included for comparison.

E. coli 045-849 = system: E. coli 045-849
Source text: as §1, §2

E. coli 5770 = system: E. coli 5770
Source text: as §1, §2

E. coli HK131 = system: E. coli HK131
Source text: as §1, §2

E. coli HK179 = system: E. coli HK179
Source text: as §1, §2

E. coli SEQ102 = system: E. coli SEQ102
Source text: as §1, §2

E. coli SOTE40 = system: E. coli SOTE40
Source text: as §1, §2

K. pneumoniae 012-3132 = system: K. pneumoniae 012-3132
Source text: as §1, §2

K. pneumoniae HK 123 = system: K. pneumoniae HK 123
Source text: as §1, §2

K. pneumoniae HK 127 = system: K. pneumoniae HK 127
Source text: as §1, §2

K. pneumoniae HK 186 = system: K. pneumoniae HK 186
Source text: as §1, §2

K. pneumoniae K6 = system: K. pneumoniae K6
Source text: as §1, §2

P. aeruginosa 10 = system: P. aeruginosa 10
Source text: as §1, §2

P. aeruginosa ATCC 39329 = system: P. aeruginosa ATCC 39329
Source text: as §1, §2

[2] = system: S. saprophyticus ATCC 15305
Source text: as §1, §2

[3] = system: S. typhimurium ATCC 14028
Source text: as §1, §2

S. typhimurium G10215 = system: S. typhimurium G10215
Source text: as §1, §2

S. typhimurium S5 = system: S. typhimurium S5
Source text: as §1, §2

[4] = system: extended-spectrum β-lactamase producing E. coli strain (designation 5770); assay: Systemic infection model, cisplatin-pretreated CD-1 mice, blood bacterial counts; format: in vivo
Experimental: (§3) As peptide drugs, such as antimicrobial peptides, are predominantly cleared through the kidneys (Klootwijk et al., 1997. J. Clin. Endocrinol. Metab. 82: 3068-3073) and the kidney functions of mice are 20-fold faster than those of humans, CD-1 female mice of 15-20 g were pretreated with 18 mg/kg cisplatin for 3 days to impair kidney clearance similar to the levels observed in humans (Mathe et al., 2006. Lab. Anim. 40: 296-300) before they were challenged intraperitoneally (ip) with 10^8 CFU per g mouse of an extended-spectrum β-lactamase producing E. coli strain (designation 5770). Four, 8 and 12 hours after challenge 10 or 20 mg/kg peptide Chex1-Arg20 or 40 mg/kg imipenem (as a positive control) were administered ip to 10 mice in each group. Imipenem is a broad spectrum β-lactam antibiotic. Prior to drug administration at all three timepoints, blood was taken from the tail vein of 3-5 mice for determining blood bacterial counts. […] Antimicrobials were administered ip 4 hours after challenge 3 times in 4 hour intervals. Blood was taken immediately before antimicrobial treatments. Numbers in parentheses indicate the number of mice with <10^3 CFU/mL. Bacterial counts were determined 10 times from different dilution of blood from 5 mice in each group in each timepoints.

[5] = Gross necropsy of surviving mice three days post-infection; format: in vivo, CD-1 mice; conditions: 10 or 20 mg/kg ip
Experimental: as §3
The skin was smooth, and healthy liver, lungs, spleen and kidneys were registered.

[6] = system: Escherichia coli isolates
[7] = system: Salmonella typhimurium isolates; conditions: murium isolates

CC(C)C[C@H](NC(=O)[C@H](Cc1ccc(O)cc1)NC(=O)[C@@H]1CCCN1C(=O)[C@H](CCCNC(=N)N)NC(=O)[C@@H]1CCCN1C(=O)[C@H](CCCCN)NC(=O)[C@H](CC(=O)O)NC(=O)[C@@H]1CCCN1C(=O)[C@H](CCCNC(=N)N)NC(=O)C1(N)CCCCC1)C(=O)N1CCC[C@H]1C(=O)N[C@@H](CCCNC(=N)N)C(=O)N1CCC[C@H]1C(=O)N[C@@H](CCCNC(=N)N)C(=O)N1CCC[C@H]1C(=O)N1CCC[C@H]1C(=O)N[C@@H](CCCNC(=N)N)C(=O)N1CCC[C@H]1C(=O)N[C@H](C(=O)N[C@@H](CCCNC(=N)N)C(=O)O)C(C)C [Chex1-Arg20, Chex-Arg-Pro-Asp-Lys-Pro-Arg-Pro-Tyr-Leu-Pro-Arg-Pro-Arg--Pro-Pro-Arg-Pro-Val-Arg] (H-[Ac6c]RPDKPRPYLPRPRPPRPVR-OH; N-terminus and C-terminus assumed)
MIC, A. baumannii ATCC BBA-1605 [1]: 16 µg/mL (≈ 6.46 µM)
MIC, E. coli 045-849 (E. coli 045-849): 2 µg/mL (≈ 0.808 µM)
MIC, E. coli 5770 (E. coli 5770): 0.5 µg/mL (≈ 0.202 µM)
MIC, E. coli HK131 (E. coli HK131): 1 µg/mL (≈ 0.404 µM)
MIC, E. coli HK179 (E. coli HK179): 1 µg/mL (≈ 0.404 µM)
MIC, E. coli SEQ102 (E. coli SEQ102): 1 µg/mL (≈ 0.404 µM)
MIC, E. coli SOTE40 (E. coli SOTE40): 2 µg/mL (≈ 0.808 µM)
MIC, K. pneumoniae 012-3132 (K. pneumoniae 012-3132): 0.25 µg/mL (≈ 0.101 µM)
MIC, K. pneumoniae HK 123 (K. pneumoniae HK 123): 2 µg/mL (≈ 0.808 µM)
MIC, K. pneumoniae HK 127 (K. pneumoniae HK 127): 0.25 µg/mL (≈ 0.101 µM)
MIC, K. pneumoniae HK 186 (K. pneumoniae HK 186): 0.25 µg/mL (≈ 0.101 µM)
MIC, K. pneumoniae K6 (K. pneumoniae K6): 2 µg/mL (≈ 0.808 µM)
MIC, P. aeruginosa 10 (P. aeruginosa 10): 32 µg/mL (≈ 12.9 µM)
MIC, P. aeruginosa ATCC 39329 (P. aeruginosa ATCC 39329): 32 µg/mL (≈ 12.9 µM)
MIC, S. saprophyticus ATCC 15305 [2]: 4 µg/mL (≈ 1.62 µM)
MIC, S. typhimurium ATCC 14028 [3]: 1 µg/mL (≈ 0.404 µM)
MIC, S. typhimurium G10215 (S. typhimurium G10215): 0.25 µg/mL (≈ 0.101 µM)
MIC, S. typhimurium S5 (S. typhimurium S5): 0.5 µg/mL (≈ 0.202 µM)
bacterial count reduction ([4]; 10 mg/kg): approximately 3 log 10 units
Bacterial counts in blood after inoculation/challenge ([4]; 10 mg/kg ip, 4 h (blood taken before first dose)): 3.2 × 10^5 CFU/mL
Bacterial counts in blood after inoculation/challenge ([4]; 10 mg/kg ip, 8 h): 8.2 × 10^3 CFU/mL
number of mice with <10^3 CFU/mL ([4]; 10 mg/kg ip, 8 h): 1/5
Bacterial counts in blood after inoculation/challenge ([4]; 10 mg/kg ip, 12 h): < 1.3 × 10^4 CFU/mL
number of mice with <10^3 CFU/mL ([4]; 10 mg/kg ip, 12 h): 1/5
effect on mouse blood after a lethal E. coli infection ([4]; 20 mg/kg): sterilized mouse blood
Bacterial counts in blood after inoculation/challenge ([4]; 20 mg/kg ip, 4 h (blood taken before first dose)): 3.2 × 10^5 CFU/mL
Bacterial counts in blood after inoculation/challenge ([4]; 20 mg/kg ip, 8 h): 5.5 × 10^4 CFU/mL
number of mice with <10^3 CFU/mL ([4]; 20 mg/kg ip, 8 h): 3/5
Bacterial counts in blood after inoculation/challenge ([4]; 20 mg/kg ip, 12 h): < 3.7 × 10^3 CFU/mL
number of mice with <10^3 CFU/mL ([4]; 20 mg/kg ip, 12 h): 3/5
bacterial count reduction ([4]; after two doses of 20 mg/kg): 3.5 log 10 units
mice having blood bacterial levels below detection limits ([4]; after two doses of 20 mg/kg): 60%
internal bleeding (hemolysis) [5]: no signs of internal bleeding
signs of toxicity at gross necropsy [5]: no signs of toxicity
minimal bactericidal concentrations (MBC) [6]: 2 to 32 µg/mL
minimal bactericidal concentrations (MBC) [7]: 4 µg/mL (≈ 1.62 µM)

From patent US8492515B2 (priority 2008, dated 2013)
